Data reported in article PMC12655371.

Assay: derived from PAMPA membrane permeability
Details: n-hexadecane (PAMPA-derived); buffer (PAMPA)

Row | Compound | hexadecane/water partition coefficient derived from PAMPA flux (Khex/w)
1 | c1ccc2c(c1)Sc1ccccc1N2CC1CN2CCC1CC2 (stereo not drawn) | 2951 K (ratio)
2 | CN1CCC[C@@H]1Cc1c[nH]c2ccc(CCS(=O)(=O)c3ccccc3)cc12 | 1.2 K (ratio)
3 | Clc1ccc2c(c1)CCc1cccnc1C2=C1CCNCC1 | 99.11 K (ratio)

Further lines, results first:

Row | hexadecane/water partition coefficient derived from PAMPA flux (Khex/w) | Compound
4 | 0.398 K (ratio) | Cc1c(O)cccc1C(=O)N[C@@H](CSc1ccccc1)[C@H](O)CN1C[C@H]2CCCC[C@H]2C[C@H]1C(=O)NC(C)(C)C
5 | 34105.6131886465 K (ratio) | CC(C)(C)c1ccc(C(O)CCCN2CCC(C(O)(c3ccccc3)c3ccccc3)CC2)cc1 (stereo not drawn)
6 | 0.01885 K (ratio) | CC(C)CN(C[C@@H](O)[C@H](Cc1ccccc1)NC(=O)O[C@H]1CCOC1)S(=O)(=O)c1ccc(N)cc1
